Reference: patent US20240091228A1, “Uridine Phosphorylase Inhibitors to Prevent or Treat Drug-Induced Pulmonary Dysfunction” (Tosk, Inc., priority 2021, published 2024)
Blank lines part the entries; values can stand above or below the compound they belong to.

How the values were obtained:
plasma uridine = plasma uridine vs plasma Compound 1 concentration after continuous sc osmotic-pump infusion to mice; format: in vivo; settings: BDF-1 male mice, constant-rate sc infusion 667, 833 or 3000 mg/kg/day
Protocol: Because uridine is cleared so rapidly, with an elimination half-life (t1/2) only a few minutes,^13 and the elimination t1/2 of Compound 1 in mice is only 1-2 hours, it is very challenging to measure uridine concentrations elevations post discrete doses of Compound I, such as used for ip dosing. For this reason, continuous infusion of Compound 1 (TK-112690) to BDF-1 t mice was administered via sc implanted osmotic pumps, and the uridine plasma concentration was measured. Solutions of Compound 1 were prepared at a concentration of 500 mg/mL in sterile PBS. Osmotic pumps (ALZET® micro-osmotic pump 2001D and 1003D, Alza Co) were loaded with 200 μL. (2001D osmotic pump) and/or 100 μL (1003D osmotic pump) of Compound 1 solution.
BDF-1 male mice (n=6) were treated with a constant-rate infusion of 667, 833 or 3000 mg/kg/day doses of Compound 1 delivered via subcutaneously implanted osmotic pumps. Animals were anesthetized with 100 mg/kg ketamine prior to pump implantation. Surgical scissors were used to make an approximately 1 cm incision on the dorsal surface near the shoulder blade of animals. A hemostat was used to carve out a subcutaneous tunnel toward the anterior end of animal. Osmotic pumps were placed inside the subcutaneous tunnel. Incision was sealed with wound clips.
Blood collections were performed on animals anesthetized with ketamine (ip 100 mg/kg). Blood samples from animals treated with a constant-rate infusion of TK-112690 were collected at 72 hours for 667 mg/kg/day and 833 mg/kg/day, and 24 hours for 3000 mg/kg/day after pump implantation. Whole blood (˜0.8 mL) was drawn through the retro-orbital sinus using a heparin coated micro-hematocrit tubes and collected into EDTA microtainer tubes. Blood samples were transferred into fresh 1.5 mL microcentrifuge tubes and centrifuged for 10 minutes at 14,000×g using an Eppendorf Minispin Plus stored in a 4° C. refrigerator. Exactly 0.4 mL of plasma was transferred into fresh microcentrifuge tubes containing 2 μL of 10 mM 5-FU and vortexed at highest setting for approximately 5 seconds. […]

hepatic fibrosis = experiment: animal model of hepatic fibrosis; format: in vivo; settings: summary statement
[1] = tested on: chemotherapy-induced mucositis; experiment: mitigation of chemotherapy-induced mucositis; settings: in vivo
UPase = settings: cited from earlier work
[2] = elimination half-life of Compound 1 in mice; settings: mouse, in vivo, read-out: elimination t1/2
[3] = side effects of TK-112690
[4] = tested on: bleomycin-induced pulmonary fibrosis; experiment: bleomycin-induced pulmonary fibrosis study in mice, lung histology (Masson's trichrome, Ashcroft grading); format: in vivo; settings: for lower fibrosis (histology score) than mice treated with the dosing vehicle / statistical significance of the fibrosis decrease vs dosing vehicle: C57BL/6 male mice, bleomycin OA day 0, 60 mg/kg IP BID days 7 through 20; for statistical significance of the fibrosis decrease vs dosing vehicle: SPSS
Text: FIG. 2. Figure is a chart providing histology scores for pulmonary tissue from mice treated with bleomycin (a well characterized lung toxin) and either dosing vehicle, uridine, or TK-112690. Thirty-three C57BL/6 male mice, 10-14 weeks old at study initiation, were acclimatized for least 3 days. The mouse has been selected as is referenced in the literature as a representative species of choice for this experimental animal model. During acclimation and throughout the entire study duration, animals were housed within a limited access rodent facility and kept in groups of a maximum of 4 mice per cage. Mice were housed in polypropylene cages with solid bottoms and wood shavings or corn cobb as bedding material. Animals were provided ad libitum with a commercial rodent diet and had free access to drinking water that is supplied to each cage via polyethylene bottles. The automatically controlled environmental conditions was set to maintain temperature at 20-26° C. with a relative humidity (RH) of 30-70%, a 12:12 hour light: dark cycle, and 10-15 air changes/hour in the study room. Animals were given a unique animal identification tail mark as a means of identification. This number also appeared on a cage card, which was visible on the front of each cage. The cage card also contained the study and group numbers, route of administration, gender, study director, and arrival date.
Animals were randomly assigned to cages upon arrival. Animals were assigned to treatment groups prior to treatment initiation. At study termination, surviving animals were weighed prior to euthanasia. Euthanasia was performed via anesthesia overdose and exsanguination.
The Table below lists the experimental group(s) comprising the study.
Disease Induction. 75 uL of Bleomycin (section 4.5.) was administered on day 0 via oropharyngeal aspiration (OA). The mice were anesthetized via isoflurane/oxygen and suspended by their cranial incisors on a thin wire from an angled stand. The tongue was gently held from the mouth using blunt forceps to visualize the base of the tongue and the pharynx. Bleomycin/saline suspension was pipetted onto posterior pharynx. Nostrils were held gently closed, Respiration was monitored to ensure the suspension is fully aspirated.
Treatment. Groups 3 and 4 were treated via intraperitoneal (IP) injection at a dosing volume of 10 ml/kg twice daily, 6-8 hours between doses, from days 7 through 20.
Observations and Examinations. Clinical signs, humane endpoints, and palliative care were monitored, as follows: changes in skin, fur, eyes, mucus membranes, occurrence of secretions and excretions, autonomic activity, gait, posture, response to handling, abnormal behavior, tremors, convulsions, sleep and coma, labored breathing, and adventitious lung sounds.
The bleomycin administration induced a severe pulmonary inflammation resulting in lethargy, dehydration, and death of diseased animals. Animals in all diseased groups were given fresh diet gel daily beginning on Day 7 and through the remainder of the study. Body weight measurements were performed 3× weekly starting on Day 0 and throughout the rest of the study.
Termination: BALF and tissue collection. Animals were euthanized via isoflurane overdose. Following euthanasia an angiocatheter was inserted into the trachea. […]
Histology. […] Disease severity and collagen levels were assessed by the Ashcroft fibrosis grading system.
The resulting data were analyzed by SPSS, version 20.

[5] = in vivo; cited from earlier work

half-life [2]: 1 to 2 h
SMILES: Cc1cn2c(nc1=O)O[C@H]1[C@H](O)[C@@H](CO)O[C@H]12 [TK-112690]
effect on plasma uridine (plasma uridine): elevate plasma uridine in a linear fashion
intercept of regression line, plasma uridine concentration vs plasma Compound 1 concentration (plasma uridine): 0.051
slope of regression line, plasma uridine concentration vs plasma Compound 1 concentration (plasma uridine): 0.010
protection in animal model of hepatic fibrosis (hepatic fibrosis): protects
efficacy as an agent to mitigate chemotherapy-induced mucositis [1]: proven efficacy
UPase inhibitor (UPase): authentic UPase inhibitor
side effects [3]: no known side effects
lower fibrosis (histology score) than mice treated with the dosing vehicle [4]: 30%
statistical significance of the fibrosis decrease vs dosing vehicle [4]: statistically significant
protection in bleomycin-induced animal model of pulmonary fibrosis ([4]; summary statement): protects

SMILES: O=c1ccn([C@@H]2O[C@H](CO)[C@@H](O)[C@H]2O)c(=O)[nH]1 [uridine]
elimination half-life (t1/2) [5]: a few minutes
lower fibrosis (histology score) than mice treated with the dosing vehicle [4]: 7%
statistical significance of the fibrosis decrease vs dosing vehicle [4]: not statistically significant
